Measurements reported in patent publication US7141397B2, “Method of preparing a guanosine-group compound and an intermediate thereof” (Yuki Gosei Kogyo Co., Ltd., priority 2000, dated 2006).

Experiment: Solubility of guanine and glyoxal-guanine in water (HPLC of liquid layer)
Assay type: physicochemical
Details: for solubility to water: general statement, no temperature given; for Solubility at each temperature: water, stirred 1 hour
Description: An excess amount of each compound was suspended in water, stirred for 1 hour at each temperature and left for a while. The liquid layer was analyzed with HPLC equipped with a UV detector, under the conditions described below.
Conditions of the HPLC analysis:
Column: Superiorex ODS (manufactured by Shiseido)
Eluent: 0.1 M ammonium dihydrogenphosphate solution: methanol=97:3 (v/v)

Row | SMILES | solubility to water | Solubility at each temperature (30° C.) | Solubility at each temperature (40° C.) | Solubility at each temperature (50° C.) | Solubility at each temperature (60° C.)
1 | O=c1c2nc[nH]c2nc2n1C(O)C(O)N2 (stereo not shown) [Glyoxal-guanine, 6,7-dihydro-6,7-dihydroxyimidazo[1,2-a]purine-9(3H)-one] | soluble to water | 200 mg/kg | 275 mg/kg | 330 mg/kg | 440 mg/kg
2 | Nc1nc2nc[nH]c2c(=O)[nH]1 [Guanine, guanine] | does not exceed a few ppm | ≤ 2 or mg/kg | ≤ 2 or mg/kg | 2 mg/kg | 2 mg/kg
